Test results taken from patent US9493472B2, “Substituted benzoxazoles” (BAYER PHARMA AKTIENGESELLSCHAFT, priority 2013, dated 2016).

Key:
thrombin [1] = target: T1, thrombin (Homo sapiens (Human), UniProt P00734); experiment: Measurement of the thrombin inhibition in buffer; assay type: biochemical; settings: human thrombin 0.06 nmol/l, Tris buffer pH 7.4, 22° C.; substrate Boc-Asp(OBzl)-Pro-Arg-AMC; in some cases means
Protocol: To determine the thrombin inhibition of the substances listed above, a biochemical test system is constructed in which the conversion of a thrombin substrate is used for determining the enzymatic activity of human thrombin. Here, thrombin cleaves aminomethylcoumarin, which is measured fluorescently, from the peptic substrate. The determinations are carried out in microtitre plates.
Substances to be tested are dissolved in various concentrations in dimethyl sulphoxide and incubated for 15 min with human thrombin (0.06 nmol/l dissolved in 50 mmol/l of Tris buffer [C,C,C-tris(hydroxymethyl)aminomethane], 100 mmol/l of sodium chloride, 0.1% BSA [bovine serum albumin], pH 7.4) at 22° C. The substrate (5 μmol/l Boc-Asp(OBzl)-Pro-Arg-AMC from Bachem) is then added. After 30 min of incubation, the sample is excited at a wavelength of 360 nm and the emission is measured at 460 nm. The measured emissions of the test batches with test substance are compared to the control batches without test substance (only dimethyl sulphoxide instead of test substance in dimethyl sulphoxide) and the IC50 values are calculated from the concentration/activity relationships.

thrombin [2] = target: T1, thrombin; experiment: Thrombin-inhibitory activity in plasma samples (ecarin-activated); assay type: biochemical; settings: citrate plasma, prothrombinase activated by ecarin, fluorogenic thrombin substrate; in some cases means; read-out: IC50 [nM] thrombin inhibition in plasma samples
Protocol: To determine the inhibition of thrombin in plasma samples, plasma […] is activated by ecarin. Thrombin activity and/or its inhibition by potential inhibitors is/are then measured fluorenscently by addition of a substrate.
The substances to be tested are dissolved in various concentrations in dimethyl sulphoxide and diluted with water. In white 96-well flat-bottomed plates, 20 μl of substance dilution are mixed with 20 μl of ecarin solution (ecarin reagent, from Sigma E-0504, final concentration 20 mU per reaction) in Ca buffer (200 mM Hepes+560 mM sodium chloride+10 mM calcium chloride+0.4% PEG) or with 20 μl of Ca buffer (as unstimulated control). Furthermore, 20 μl of fluorogenic thrombin substrate (from Bachem I-1120, final concentration 50 μmol/l) and 20 μl of citrate plasma (from Octapharma) are added, and the mixture is homogenized well. The plate is measured in a SpectraFluorplus Reader using a 360 nm excitation filter and a 465 nm emission filter every minute over 20 minutes.

[3] = test system: plasma (prothrombin time); experiment: Anticoagulatory activity: prothrombin time (PT) in plasma; settings: 37° C., 3 minutes incubation, plasma species not given, in some cases means, read-out: IC50 [μM] (concentration of test substance which effects a doubling of the prothrombin time)
Protocol: The anticoagulatory activity of the test substances is determined in vitro in human plasma, rabbit plasma and rat plasma. To this end, blood is drawn off in a mixing ratio of sodium citrate/blood of 1:9 using a 0.11 molar sodium citrate solution as receiver. Immediately after the blood has been drawn off, it is mixed thoroughly and centrifuged at about 4000 g for 15 minutes. The supernatant is pipetted off.
The prothrombin time (PT, synonyms: thromboplastin time, quick test) is determined in the presence of varying concentrations of test substance or the corresponding solvent using a commercial test kit (Neoplastin® from Boehringer Mannheim or Hemoliance® RecombiPlastin from Instrumentation Laboratory). The test compounds are incubated with the plasma at 37° C. for 3 minutes. Coagulation is then started by addition of thromboplastin, and the time when coagulation occurs is determined. The concentration of test substance which effects a doubling of the prothrombin time is determined Representative activity data from this test are given in Table 3 below (in some cases as means of individual determinations): […]

SMILES	IC50 (thrombin [1]) [nM]	IC50 (thrombin [2]) [nM]	IC50 [3] [µM]
COc1cc(C(=O)N2CC(C)(C)OCC2CO)cc2nc(NC(CF)c3cccc(Cl)c3)oc12 (single isomer, unassigned) [Example 6, (2-{[1-(3-Chlorophenyl)-2-fluoroethyl]amino}-7-methoxy-1,3-benzoxazol-5-yl)[5-(hydroxymethyl)-2,2-dimethylmorpholin-4-yl]methanone]	9.7	16.5	–
COc1cc(C(=O)N2CC(C)(CCO)OC[C@H]2C)cc2nc(NC(CF)c3cccc(Cl)c3)oc12 (stereo partly drawn) [Example 9, (2-{[1-(3-Chlorophenyl)-2-fluoroethyl]amino}-7-methoxy-1,3-benzoxazol-5-yl)[(5R)-2-(2-hydroxyethyl)-2,5-dimethylmorpholin-4-yl]methanone]	0.2	14.3	–
CCO[C@@H]1CC(CCO)N(C(=O)c2cc(OC)c3oc(NC(CF)c4cccc(Cl)c4)nc3c2)C1 (single isomer, unassigned) [Example 31]	0.54	5	–
COc1cc(C(=O)N2CC(C)(C)OCC2CO)cc2nc(NC(CF)c3cccc(Cl)c3)oc12 (stereo not drawn) [Example 4, (2-{[1-(3-Chlorophenyl)-2-fluoroethyl]amino}-7-methoxy-1,3-benzoxazol-5-yl)[5-(hydroxymethyl)-2,2-dimethylmorpholin-4-yl]methanone]	1.7	9.8	–
COc1cc(C(=O)N2CC(C)(CCO)OC[C@H]2C)cc2nc(NC(CF)c3cccc(Cl)c3)oc12 (single isomer, unassigned) [Example 11]	0.01	5.7	1
COc1cc(C(=O)N2CC3CCN3C(=O)C2C)cc2nc(NC(CF)c3cccc(Cl)c3)oc12 (single isomer, unassigned) [Example 23, 4-[(2-{[1-(3-Chlorophenyl)-2-fluoroethyl]amino}-7-methoxy-1,3-benzoxazol-5-yl)carbonyl]-3-methyl-1,4-diazabicyclo[4.2.0]octan-2-one]	1.7	4.7	–
COc1cc(C(=O)N2CC(C)(C)OC[C@H]2CCO)cc2nc(NC(CF)c3cccc(Cl)c3)oc12 (stereo partly drawn) [Example 25, (2-{[1-(3-Chlorophenyl)-2-fluoroethyl]amino}-7-methoxy-0,2-benzoxazol-5-yl)[(5R)-5-(2-hydroxyethyl)-2,2-dimethylmorpholin-4-yl]methanone]	4.3	4.7	1.1
COc1cc(C(=O)N2CC(C)OC[C@]23C[C@H](O)C3)cc2nc(NC(CF)c3cccc(Cl)c3)oc12 (stereo partly drawn) [Example 22, (2-{[1-(3-Chlorophenyl)-2-fluoroethyl]amino}-7-methoxy-1,3-benzoxazol-5-yl)(cis-2-hydroxy-7-methyl-8-oxa-5-azaspiro[3.5]non-5-yl)methanone]	1.6	3.8	–
COc1cc(C(=O)N2CCC(O)C(C)C2)cc2nc(NC(CF)c3cccc(Cl)c3)oc12 (single isomer, unassigned) [Example 3, (2-{[1-(3-Chlorophenyl)-2-fluoroethyl]amino}-7-methoxy-1,3-benzoxazol-5-yl)(4-hydroxy-3-methylpiperidin-1-yl)methanone]	2.4	11.6	1.8
COc1cc(C(=O)N2CC3(CC3)NC(=O)C2C)cc2nc(NC(CF)c3cccc(Cl)c3)oc12 (single isomer, unassigned) [Example 33, 7-[(2-{[1-(3-Chlorophenyl)-2-fluoroethyl]amino}-7-methoxy-1,3-benzoxazol-5-yl)carbonyl]-6-methyl-4,7-diazaspiro[2.5]octan-5-one]	0.38	8.4	0.8
COc1cc(C(=O)N2CCC(O)C(C)C2)cc2nc(NC(CF)c3cccc(Cl)c3)oc12 (single isomer, unassigned) [Example 2, (2-{[1-(3-Chlorophenyl)-2-fluoroethyl]amino}-7-methoxy-1,3-benzoxazol-5-yl)(4-hydroxy-3-methylpiperidin-1-yl)methanone]	31	31	–
COc1cc(C(=O)N2CCC(O)C(C)C2)cc2nc(NC(CF)c3cccc(Cl)c3)oc12 (stereo not drawn) [Example 1, (2-{[1-(3-Chlorophenyl)-2-fluoroethyl]amino}-7-methoxy-1,3-benzoxazol-5-yl)(4-hydroxy-3-methylpiperidin-1-yl)methanone]	3.2	21	–
COc1cc(C(=O)N2CC(C)(CCO)OC[C@H]2C)cc2nc(NC(CF)c3cccc(Cl)c3)oc12 (single isomer, unassigned) [Example 10]	130	1400	–
CCO[C@@H]1CC(CO)N(C(=O)c2cc(OC)c3oc(NC(CF)c4cccc(Cl)c4)nc3c2)C1 (single isomer, unassigned) [Example 27]	0.16	4.6	1
COc1cc(C(=O)N2CC(C)OCC2CCO)cc2nc(NC(CF)c3cccc(Cl)c3)oc12 (stereo not drawn) [Example 13, (2-{[1-(3-Chlorophenyl)-2-fluoroethyl]amino}-7-methoxy-1,3-benzoxazol-5-yl)[5-(2-hydroxyethyl)-2-methylmorpholin-4-yl]methanone]	–	–	1.4
CCO[C@@H]1CC(CO)N(C(=O)c2cc(OC)c3oc(NC(CF)c4cccc(Cl)c4)nc3c2)C1 (single isomer, unassigned) [Example 28]	2.3	56	–
COc1cc(C(=O)N2CC(C)(C)OCC2CO)cc2nc(NC(CF)c3cccc(Cl)c3)oc12 (single isomer, unassigned) [Example 5, (2-{[1-(3-Chlorophenyl)-2-fluoroethyl]amino}-7-methoxy-1,3-benzoxazol-5-yl)[5-(hydroxymethyl)-2,2-dimethylmorpholin-4-yl]methanone]	1.1	4.8	–
CCO[C@@H]1CC(CO)N(C(=O)c2cc(OC)c3oc(NC(CF)c4cccc(Cl)c4)nc3c2)C1 (stereo partly drawn) [Example 26, (2-{[1-(3-Chlorophenyl)-2-fluoroethyl]amino}-7-methoxy-1,3-benzoxazol-5-yl)[(4R)-4-ethoxy-2-(hydroxymethyl)pyrrolidin-1-yl]methanone]	0.19	2	–
COc1cc(C(=O)N2CC3(CC3)NC(=O)C2C)cc2nc(NC(CF)c3cccc(Cl)c3)oc12 (stereo not drawn) [Example 32, 7-[(2-{[1-(3-Chlorophenyl)-2-fluoroethyl]amino}-7-methoxy-1,3-benzoxazol-5-yl)carbonyl]-6-methyl-4,7-diazaspiro[2.5]octan-5-one]	0.7	7.3	–
CCO[C@@H]1CC(CCO)N(C(=O)c2cc(OC)c3oc(NC(CF)c4cccc(Cl)c4)nc3c2)C1 (single isomer, unassigned) [Example 30]	5.3	46	–
COc1cc(C(=O)N2CC(C)OC[C@H]2C)cc2nc(NC(CF)c3cccc(Cl)c3)oc12 (single isomer, unassigned) [Example 8]	11	25.3	–
CCO[C@@H]1CC(CCO)N(C(=O)c2cc(OC)c3oc(NC(CF)c4cccc(Cl)c4)nc3c2)C1 (stereo partly drawn) [Example 29, (2-{[1-(3-Chlorophenyl)-2-fluoroethyl]amino}-7-methoxy-1,3-benzoxazol-5-yl)[(4R)-4-ethoxy-2-(2-hydroxyethyl)pyrrolidin-1-yl]methanone]	1.1	15	–
COc1cc(C(=O)N2CC(C)OC[C@@H]2CC(=O)O)cc2nc(NC(CF)c3cccc(Cl)c3)oc12 (single isomer, unassigned) [Example 24]	–	4.5	–
COc1cc(C(=O)N2CC3(CC3)NC(=O)C2C)cc2nc(NC(CF)c3cccc(Cl)c3)oc12 (single isomer, unassigned) [Example 34, 7-[(2-{[1-(3-Chlorophenyl)-2-fluoroethyl]amino}-7-methoxy-1,3-benzoxazol-5-yl)carbonyl]-6-methyl-4,7-diazaspiro[2.5]octan-5-one]	20	170	–
